No end group written: not given here.
Legend:
(PL/J x SJL/J)F1 mice [1] = assay type: in vivo; conditions: Table 1, observed 30-35 d, three experiments
[2] = biological target: T1, A alpha uA beta u (MHC class II molecules) (Mus musculus, UniProt P06344+P14438); conditions: cited from earlier work
T1 sequence (P14438 1-227): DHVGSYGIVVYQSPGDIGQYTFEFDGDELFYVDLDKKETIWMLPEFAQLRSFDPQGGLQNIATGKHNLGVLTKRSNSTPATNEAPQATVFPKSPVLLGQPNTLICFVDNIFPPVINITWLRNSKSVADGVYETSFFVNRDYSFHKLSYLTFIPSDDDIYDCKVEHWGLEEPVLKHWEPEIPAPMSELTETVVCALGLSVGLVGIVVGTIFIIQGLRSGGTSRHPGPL
T1 sequence (P06344 28-263): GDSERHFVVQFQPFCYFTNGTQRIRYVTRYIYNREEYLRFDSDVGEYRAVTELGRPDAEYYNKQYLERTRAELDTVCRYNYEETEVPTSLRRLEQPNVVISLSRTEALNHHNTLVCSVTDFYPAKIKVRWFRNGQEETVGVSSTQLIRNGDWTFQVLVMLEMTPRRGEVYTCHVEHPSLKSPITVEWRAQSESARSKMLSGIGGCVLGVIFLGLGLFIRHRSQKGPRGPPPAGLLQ

(PL/J x SJL/J)F1 mice [3] = assay: Inhibition of EAE by coimmunization of competitor peptide with Ac1-11; assay type: in vivo; conditions: Table 2, Ac1-11 25 nmol alone or with competitor 500 nmol

Substance: Ac1-11: immunodominant N-terminal myelin basic protein (MBP) peptide, wild type (Ac-MGNHSGKRELS; UniProt P04370 1-11, looked up, fragment)
- Incidence of EAE (mice with disease/total) ((PL/J x SJL/J)F1 mice [1]; 100 nmol peptide in CFA s.c.): 27/31
- Percent incidence of EAE ((PL/J x SJL/J)F1 mice [1]; […]): 87%
- Binding to AαuAβu [2]: poor binder
- Day of onset ((PL/J x SJL/J)F1 mice [3]): 12.75
- Mean clinical scores ((PL/J x SJL/J)F1 mice [3]; grades 1-5): 3.4
